The results in this text go back to ChEMBL document CHEMBL1133382, “Probing the extended binding determinants of oligosaccharyl transferase with synthetic inhibitors of asparagine-linked glycosylation” (Bioorg Med Chem Lett, 2000).

For this assay, the target named is T1, Dolichyl-diphosphooligosaccharide--protein glycosyltransferase 48 kDa subunit (UniProt P39656).
T1 sequence (P39656 whole entry): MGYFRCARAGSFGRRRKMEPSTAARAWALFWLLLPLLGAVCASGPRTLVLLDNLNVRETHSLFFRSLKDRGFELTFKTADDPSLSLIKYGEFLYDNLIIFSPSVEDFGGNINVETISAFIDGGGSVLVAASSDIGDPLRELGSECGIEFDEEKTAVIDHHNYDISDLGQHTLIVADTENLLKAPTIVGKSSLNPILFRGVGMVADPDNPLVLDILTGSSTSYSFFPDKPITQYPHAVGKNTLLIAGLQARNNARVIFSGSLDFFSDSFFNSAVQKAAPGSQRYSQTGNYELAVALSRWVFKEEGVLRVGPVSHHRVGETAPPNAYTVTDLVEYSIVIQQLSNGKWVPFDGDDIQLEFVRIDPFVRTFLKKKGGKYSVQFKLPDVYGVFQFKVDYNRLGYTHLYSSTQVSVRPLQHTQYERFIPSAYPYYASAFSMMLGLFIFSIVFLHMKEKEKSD
As to the kind of experiment: Inhibition of asparagine-linked glycosylation by oligosaccharyl transferase. Details: species or system Saccharomyces cerevisiae.

Starred links: 1 amine or outer side, 2 acyl side, 3 side chain; linkers in the order of their positions; H or OH if unused. Positions of bridges follow the written chain, without caps; N, C: chain ends. Non-standard residues stand in square brackets, D forms with d. Residues, ends and D or L forms follow the SMILES beside them. *: point of attachment. Phe(4-NO2) = N[C@@H](Cc1ccc([N+](=O)[O-])cc1)C(=O)O; X1 = O=C(CCCCC[*:2])[*:1]; Dab = NCC[C@H](N)C(=O)O; X3 = c1ccc2cc(*)ccc2c1

Regarding `CC(C)[C@H](NC(=O)[C@@H](NC(=O)[C@@H]1CSCCCCCC(=O)N[C@@H](CCN)C(=O)N1)[C@@H](C)O)C(=O)N[C@H](C(N)=O)[C@@H](C)O`, the Ki worked out at 82 nM.
Next, `CC(C)[C@H](NC(=O)[C@@H](NC(=O)[C@@H]1CSCCCCCC(=O)N[C@@H](CCN)C(=O)N1)[C@@H](C)O)C(=O)N[C@H](C(=O)NCCCCc1ccccc1)[C@@H](C)O`: 50 nM.
As for `CC(C)[C@H](NC(=O)[C@@H](NC(=O)[C@@H]1CSCCCCCC(=O)N[C@@H](CCN)C(=O)N1)[C@@H](C)O)C(=O)N[C@H](C(=O)NCCc1ccccc1)[C@@H](C)O`, affinity was put at a Ki of 44 nM. This Ki and that of the compound before are within 1.5-fold of each other.
Next, `CC(C)[C@H](NC(=O)[C@@H](NC(=O)CNC(=O)[C@H](CCCNCc1ccccc1)NCc1ccccc1)[C@@H](C)O)C(=O)N[C@H](C(N)=O)[C@H](C)O`: over 5000 nM; `CCCCCCCCCCNCC[C@@H]1NC(=O)CCCCCSC[C@@H](C(=O)N[C@H](C(=O)N[C@H](C(=O)N[C@H](C(=O)N[C@@H](Cc2ccc([N+](=O)[O-])cc2)C(N)=O)[C@@H](C)O)C(C)C)[C@@H](C)O)NC1=O`: 61 nM; `CC(C)[C@H](NC(=O)[C@@H](NC(=O)[C@@H]1CSCCCCCC(=O)N[C@@H](CCNc2ccc3ccccc3c2)C(=O)N1)[C@@H](C)O)C(=O)N[C@H](C(=O)NCCc1ccc([N+](=O)[O-])cc1)[C@@H](C)O`: 10 nM.
Compound `CC(C)[C@H](NC(=O)[C@@H](NC(=O)[C@@H]1CSCCCCCC(=O)N[C@@H](CCN)C(=O)N1)[C@@H](C)O)C(=O)N[C@H](C(=O)NCCc1ccc([N+](=O)[O-])cc1)[C@@H](C)O` yielded an inhibition constant Ki of 20 nM. This Ki is about 2-fold higher than that of the compound before.
The value for `COc1ccc(CNCCC[C@H](NCc2ccccc2)C(=O)NCC(=O)N[C@H](C(=O)N[C@H](C(=O)N[C@H](C(N)=O)[C@@H](C)O)C(C)C)[C@@H](C)O)cc1` (HELM PEPTIDE1{[COc1ccc(CNCCC[C@H](NCc2ccccc2)C(=O)[*:2])cc1].G.T.V.T.[am]}$$$$V2.0) was 305 nM; that for `[H][C@@](NC(=O)[C@@H]1CSCCCCCC(=O)N[C@@H](CCN)C(=O)N1)(C(=O)N[C@H](C(=O)N[C@H](C(=O)N[C@@H](Cc1ccc([N+](=O)[O-])cc1)C(N)=O)[C@@H](C)O)C(C)C)[C@@H](C)O` (HELM PEPTIDE1{[Dab].C.T.V.T.[O=C([C@H](Cc1ccc([N+](=O)[O-])cc1)N[*:1])[*:2]].[am]}|CHEM1{[O=C(CCCCC[*:2])[*:1]]}$PEPTIDE1,CHEM1,1:R1-1:R1|PEPTIDE1,CHEM1,2:R3-1:R2$$$V2.0) was 37 nM; that for `CC(C)[C@H](NC(=O)[C@@H](NC(=O)CNC(=O)[C@H](CCCNCc1ccc([N+](=O)[O-])cc1)NCc1ccccc1)[C@@H](C)O)C(=O)N[C@H](C(N)=O)[C@@H](C)O` (HELM PEPTIDE1{[O=C([C@H](CCCNCc1ccc([N+](=O)[O-])cc1)NCc1ccccc1)[*:2]].G.T.V.T.[am]}$$$$V2.0) was 154 nM.
On to `CC(C)[C@H](NC(=O)[C@@H](NC(=O)[C@@H]1CSCCCCCC(=O)N[C@@H](CCNc2ccc3ccccc3c2)C(=O)N1)[C@@H](C)O)C(=O)N[C@H](C(=O)N[C@@H](Cc1ccc([N+](=O)[O-])cc1)C(N)=O)[C@@H](C)O` ([Dab](X3)CTVT[Phe(4-NO2)]-NH2; linker N-2 via X1), for which the Ki came out at 40 nM.
